Test results reported in patent US9526720B2, “Modulators of hepatic lipoprotein metabolism” (The Broad Institute, Inc., priority 2012, dated 2016).

How the values were obtained:
[1] = system: LDLR; assay: qPCR LDLR expression in HepG2 cells; assay type: cell-based, human; details: for EC50: Homo sapiens, HepG2, 6 h, read-out: qPCR 6Hr (EC50 uM) LDLR up-regulation; for qPCR LDLR: HepG2 cells
Protocol: (§1) In the primary screen, HepG2 cells were plated in 384-well plates at 2000 cells per well and incubated for 20 hours with each compound in duplicate at 10 microM concentration. Then RNA was isolated, reverse-transcribed to cDNA, and stored at −80° C. Expression levels of TRIB1 and other target genes, such as SORT1 and PCSK9, were determined by quantitative PCR. Relative gene expression level was normalized to expression of the housekeeping gene, GAPDH. A “hit” was defined as those compounds that caused a greater than 2-fold increase in relative target gene expression when normalized to GAPDH expression, compared to DMSO-treated control. Using these criteria, 130 hits were identified for TRIB1 (0.8% hit rate).
(§2) Further analysis of the expression levels of various proteins in the cholesterol and triglyceride biosynthetic pathways in response to TRIB1 inducer treatment was performed. In particular, transcript levels of additional lipoprotein metabolism pathway proteins SCAP, SREBF1, SREBF2, HMGCR, HMGCS, SCD1, FASN and MTTP were assessed by qPCR, along with TRIB1, LDLR, and PCSK9. The gene expression profile for the same subset of genes was also assessed after treatment with the statin atorvastatin (Lipitor), commonly used in therapy for hypercholesterolemia and other cardiovascular diseases.
(§3) The kinetics of the modulation of TRIB1, LDLR, PCSK9 and MTTP gene expression after treatment by select TRIB1 inducer compounds was monitored by qPCR analysis (FIG. 4). RNA was extracted from cells at various timepoints over 28 hours of treatment (0, 2, 4, 6, 8, 24, 28 hours). Specifically, compounds 12a and 14a induced transcriptional responses over time similar to those produced by berberine, a plant alkaloid used in Chinese medicine. […] Both compound 12a and compound 14a induce TRIB1 and LDLR and repress PCSK9 and MTTP expression with similar kinetics and similar fold change as berberine Importantly, both compounds induce these gene expression changes at much lower concentrations than berberine. […] This increased potency indicates the potential therapeutic efficacy of such compounds for treatment of cardiovascular diseases, particularly hypercholesterolemia and related conditions.

[2] = system: LDLR; assay: ELISA of LDLR protein in HepG2 cells; assay type: cell-based, human; design: key to ELISA LDLR: A: Increase <2-fold; B: Increase >2-fold; X: Decrease <2-fold; Y: Decrease >2-fold; No significant change; details: for EC50: Homo sapiens, HepG2, 24 h, read-out: ELISA 24 Hr (EC50 uM) LDLR increase; for ELISA LDLR: HepG2 cells
Protocol: (§4) Additional secondary assays were performed in HepG2 cells to further characterize the cellular response to treatment with select confirmed TRIB1 inducer hits. The results of the ELISA, CTG, and qPCR secondary assays are summarized in Table B. For all secondary assays, the experiments were performed using powders of freshly purified compounds.
(§5) To further characterize the relationship of TRIB1 induction and PCSK9 reduction, ELISAs were performed to measure the levels of secreted ApoB, PCSK9, and LDLR. […] As predicted treatment with TRIB1 inducer hits caused a decrease in ApoB levels detected by ELISA. In parallel effort, 3200 BIOA and NATP compounds were screened for PCSK9 expression inhibitors. Hits were defined as inducing greater than 3-fold downregulation of PCSK9, and 3.8% of the screened compounds were confirmed as hits. […] In further experiments, a strong correlation was confirmed between TRIB1 induction and PCSK9 repression in DOS Collection hits. ELISA analysis confirmed that treatment with TRIB1 inducers reduced the PCSK9 protein levels. LDLR protein levels were also analyzed by ELISA to determine whether compounds that modulate both TRIB1 and PCSK9 had any effect on LDLR protein levels.

[3] = system: PCSK9; assay: qPCR PCSK9 expression in HepG2 cells; assay type: cell-based, human; details: Homo sapiens; for EC50: HepG2, 24 h, read-out: qPCR 24 Hr (EC50 uM) PCSK9 down-regulation; for fold induction at 10 µM: 20 h, HepG2 cells
Protocol: as §1, §2, §3

[4] = system: PCSK9; assay: ELISA of secreted PCSK9 protein in HepG2 cells; assay type: cell-based, human; details: for EC50: Homo sapiens, HepG2, 24 h, read-out: ELISA 24 Hr (EC50 uM) PCSK9 decrease; for ELISA PCSK9: HepG2 cells
Protocol: as §4, §5

[5] = system: TRIB1; assay: qPCR TRIB1 expression in HepG2 cells; assay type: cell-based; details: Homo sapiens, HepG2, 6 h; read-out: qPCR 6Hr (EC50 uM) TRIB1 up-regulation
[6] = system: ApoB; assay: ELISA of secreted ApoB in HepG2 cells; assay type: cell-based, human; details: for EC50: Homo sapiens, HepG2, 24 h, read-out: ELISA 24 Hr (EC50 uM) ApoB decrease; for ELISA ApoB: HepG2 cells
Protocol: as §4, §5

[7] = system: FASN; assay: qPCR FASN transcript level in HepG2 cells; assay type: cell-based; details: Homo sapiens, 20 h
Protocol: as §1, §2

[8] = system: HepG2 cells; assay: Cell Titer Glo (CTG) cell viability assay; assay type: cell-based, human; design: key: A: Increase <2-fold; B: Increase >2-fold; X: Decrease <2-fold; Y: Decrease >2-fold; No significant change; details: cell viability (ATP)
Protocol: Cell viability was determined using a Cell Titer Glo (CTG) assay ([…]) after treatment with TRIB1 inducer compounds. In this assay, the number of viable cells in culture is based on quantitation of ATP, which indicates metabolically active cells. Addition of the reagent results in cell lysis and generation of a luminescent signal proportional to the amount of ATP present, which is directly proportional to the number of viable, metabolically active cells present in culture. Most TRIB1 inducer compounds had no significant effect on cell viability.

[9] = system: SCD1; assay: qPCR SCD1 transcript level in HepG2 cells; assay type: cell-based; details: Homo sapiens, 20 h
Protocol: as §1, §2

[10] = system: HMGCS; assay: qPCR HMGCS transcript level in HepG2 cells; assay type: cell-based; details: Homo sapiens, 20 h
Protocol: as §1, §2

[11] = system: TRIB1; assay: qPCR TRIB1 expression in HepG2 cells; assay type: cell-based, human; details: Homo sapiens, 20 h; HepG2 cells
Protocol: as §1, §2, §3

[12] = system: SREBF2; assay: qPCR SREBF2 transcript level in HepG2 cells; assay type: cell-based, human; design: key: A: Increase <2-fold; B: Increase >2-fold; X: Decrease <2-fold; Y: Decrease >2-fold; No significant change
Protocol: as §1, §2

[13] = system: SREBF1; assay: qPCR SREBF1 transcript level in HepG2 cells; assay type: cell-based, human; design: key: A: Increase <2-fold; B: Increase >2-fold; X: Decrease <2-fold; Y: Decrease >2-fold; No significant change
Protocol: as §1, §2

[14] = system: SCAP; assay: qPCR SCAP transcript level in HepG2 cells; assay type: cell-based, human; design: key: A: Increase <2-fold; B: Increase >2-fold; X: Decrease <2-fold; Y: Decrease >2-fold; No significant change
Protocol: as §1, §2

[15] = system: HMGCR; assay: qPCR HMGCR transcript level in HepG2 cells; assay type: cell-based, human
Protocol: as §1, §2

| Structure (SMILES) | EC50 [1] [µM] | EC50 [2] [µM] | EC50 [3] [µM] | EC50 [4] [µM] | EC50 [5] [µM] | EC50 [6] [µM] | fold induction at 10 µM [7] | CTG [8] | fold induction at 10 µM [9] | qPCR LDLR [1] | fold induction at 10 µM [10] | fold induction at 10 µM [11] | ELISA LDLR [2] | qPCR SREBF2 [12] | fold induction at 10 µM [3] | ELISA PCSK9 [4] | qPCR SREBF1 [13] | ELISA ApoB [6] | qPCR SCAP [14] | qPCR HMGCR [15] |
| --- | --- | --- | --- | --- | --- | --- | --- | --- | --- | --- | --- | --- | --- | --- | --- | --- | --- | --- | --- | --- |
| N#C[C@H]1[C@H](c2ccc(-c3cccc(F)c3)cc2)[C@@H](CO)N1C(=O)NC1CCCC1 [Compound 20a] | 2.1 to 5 | 1.1 to 2 | 0.51 to 1 | 1.1 to 2 | 2.1 to 5 | > 10 | – | – | – | – | – | – | – | – | – | – | – | – | – | – |
| O=C(C[C@H]1CC[C@H]2[C@@H](COC[C@@H](O)CN2Cc2ccc(Oc3ccccc3)cc2)O1)N1CCc2ccccc2C1 [Compound 7a] | – | – | – | – | – | – | < 2 | N | < 2 | B (Increase >2-fold) | > 2 | > 2 | B (Increase >2-fold) | N | > 2 | Y (Decrease >2-fold) | N | Y (Decrease >2-fold) | N | Y (Decrease >2-fold) |
| CN1C(=O)c2cc(NC(=O)Cc3cccs3)ccc2OC[C@@H]2O[C@H](CC(=O)NCc3ccc(-c4ccccc4)cc3)CC[C@@H]21 [Compound 4a] | – | – | – | – | – | – | > 2 | N | < 2 | A (Increase <2-fold) | > 2 | > 2 | A (Increase <2-fold) | X (Decrease <2-fold) | > 2 | X (Decrease <2-fold) | X (Decrease <2-fold) | Y (Decrease >2-fold) | X (Decrease <2-fold) | X (Decrease <2-fold) |
| O=C(C[C@@H]1CC[C@@H]2[C@H](COC[C@H](O)CN2CCC(F)(F)F)O1)NCc1ccc(Oc2ccccc2)cc1 [Compound 10a] | – | – | – | – | – | – | < 2 | N | > 2 | B (Increase >2-fold) | > 2 | > 2 | N | N | > 2 | X (Decrease <2-fold) | N | Y (Decrease >2-fold) | N | Y (Decrease >2-fold) |
| Cc1cc(C(=O)Nc2ccc3c(c2)C(=O)N(C)[C@H]2CC[C@@H](CC(=O)NCc4ccc(-c5ccccc5)cc4)O[C@@H]2CO3)no1 [Compound 3a] | – | – | – | – | – | – | > 2 | N | > 2 | B (Increase >2-fold) | > 2 | > 2 | B (Increase >2-fold) | B (Increase >2-fold) | > 2 | X (Decrease <2-fold) | N | Y (Decrease >2-fold) | N | Y (Decrease >2-fold) |
| CN(C)C(=O)c1ccc(-c2ccc([C@H]3[C@@H](C#N)N(C(=O)C4CCCC4)[C@H]3CO)cc2)cc1 [Compound 19a] | 1.1 to 2 | 2.1 to 5 | 1.1 to 2 | 1.1 to 2 | 2.1 to 5 | 2.1 to 5 | – | – | – | – | – | – | – | – | – | – | – | – | – | – |
| CN(C)C(=O)c1ccc(-c2ccc([C@H]3[C@@H](C#N)N(C(=O)C4CCC4)[C@H]3CO)cc2)cc1 [Compound 18a] | 1.1 to 2 | 2.1 to 5 | 0.51 to 1 | 0.51 to 1 | 1.1 to 2 | 0.51 to 1 | – | – | – | – | – | – | – | – | – | – | – | – | – | – |
